Measurements as given in patent US10167262B2, “Herbicidal substituted 3-arylpyrazoles” (FMC CORPORATION, priority 2014, dated 2019).

Legend:
Assay type in all cases: in vivo
[1] = test system: barnyardgrass (Echinochloa crus-galli); assay: Test A pre-/postemergence greenhouse herbicide test, visual injury rating 0-100; details: 1000 g ai/ha
In short: (§1)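 Scale 0–100 (none to complete control), visual, versus untreated controls after approx. 10 greenhouse days. Pre: directed soil spray at planting. Post: 2–10 cm, one- to two-leaf plants. Non-phytotoxic solvent plus surfactant vehicle.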

[2] = test system: corn (Zea mays); assay: as above; details: 1000 g ai/ha
In short: as §1

[3] = test system: giant foxtail (Setaria faberii); assay: as above; details: 1000 g ai/ha
In short: as §1

[4] = test system: large (Lg) crabgrass (Digitaria sanguinalis); assay: as above; details: 1000 g ai/ha
In short: as §1

[5] = test system: morningglory (Ipomoea spp.); assay: as above; details: 1000 g ai/ha
In short: as §1

[6] = test system: pigweed (Amaranthus retroflexus); assay: as above; details: 1000 g ai/ha
In short: as §1

[7] = test system: velvetleaf (Abutilon theophrasti); assay: as above; details: 1000 g ai/ha
In short: as §1

[8] = test system: wheat (Triticum aestivum); assay: as above; details: 1000 g ai/ha
In short: as §1

[9] = test system: Italian ryegrass (Lolium multiflorum); assay: Test C pre-/postemergence greenhouse test, plant response rating 0-100; details: Postemergence; for Plant response rating, Ryegrass, Italian: scale 0 to 100
In short: (§2)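 Visual 0–100 control scores, taken 13 to 15 days post-application in a greenhouse, reflect treatment preemergence (seed in loam soil with sand) or postemergence (2–18 cm plants in peat moss, vermiculite medium). A dash marks no result.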

[10] = test system: giant foxtail (Setaria faberii); assay: as above; details: Postemergence; for Plant response rating, Foxtail, Giant: scale 0 to 100
In short: as §2

[11] = test system: soybean (Glycine max); assay: as above; details: Postemergence; for Plant response rating, Soybean: scale 0 to 100
In short: as §2

[12] = test system: chickweed (common chickweed, Stellaria media); assay: Test C postemergence greenhouse test, plant response rating 0-100; details: for Plant response rating, Chickweed: scale 0 to 100
In short: (§3)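 Potted in peat/vermiculite mix; postemergence application at 1–4 leaves (2–18 cm); greenhouse 13–15 d; visual score 0–100 relative to untreated plants; dash = no test result.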

[13] = test system: kochia (Kochia scoparia); assay: as above; details: for Plant response rating, Kochia: scale 0 to 100
In short: as §3

[14] = test system: wild oat (Avena fatua); assay: as above; details: for Plant response rating, Oat, Wild: scale 0 to 100
In short: as §3

Compound: Fc1ccc(NN=C(c2ccccc2)c2c[nH]nc2-c2cc(Cl)cc(Cl)c2)cc1 [Compound 35]
- Plant response rating (0 to 100 scale), Barnyardgrass ([1]; Postemergence): 0
- Plant response rating (0 to 100 scale), Barnyardgrass ([1]; Preemergence): 0
- Plant response rating (0 to 100 scale), Corn ([2]; Postemergence): 0
- Plant response rating (0 to 100 scale), Corn ([2]; Preemergence): 0
- Plant response rating (0 to 100 scale), Foxtail, Giant ([3]; Postemergence): 0
- Plant response rating (0 to 100 scale), Foxtail, Giant ([3]; Preemergence): 0
- Plant response rating (0 to 100 scale), Crabgrass, Large ([4]; Postemergence): 0
- Plant response rating (0 to 100 scale), Crabgrass, Large ([4]; Preemergence): 0
- Plant response rating (0 to 100 scale), Morningglory ([5]; Postemergence): 0
- Plant response rating (0 to 100 scale), Morningglory ([5]; Preemergence): 0
- Plant response rating (0 to 100 scale), Pigweed ([6]; Postemergence): 90
- Plant response rating (0 to 100 scale), Pigweed ([6]; Preemergence): 100
- Plant response rating (0 to 100 scale), Velvetleaf ([7]; Postemergence): 90
- Plant response rating (0 to 100 scale), Velvetleaf ([7]; Preemergence): 100
- Plant response rating (0 to 100 scale), Wheat ([8]; Postemergence): 0
- Plant response rating (0 to 100 scale), Wheat ([8]; Preemergence): 0
- Plant response rating (0 to 100), Ryegrass, Italian ([9]; 62 g ai/ha): 0
- Plant response rating (0 to 100), Ryegrass, Italian ([9]; 125 g ai/ha): 0
- Plant response rating, Ryegrass, Italian ([9]; 250 g ai/ha): 0
- Plant response rating, Ryegrass, Italian ([9]; 500 g ai/ha): 0
- Plant response rating (0 to 100), Foxtail, Giant ([10]; 62 g ai/ha): 0
- Plant response rating (0 to 100), Foxtail, Giant ([10]; 125 g ai/ha): 0
- Plant response rating, Foxtail, Giant ([10]; 250 g ai/ha): 0
- Plant response rating, Foxtail, Giant ([10]; 500 g ai/ha): 5
- Plant response rating (0 to 100), Soybean ([11]; 62 g ai/ha): 10
- Plant response rating (0 to 100), Soybean ([11]; 125 g ai/ha): 10
- Plant response rating, Soybean ([11]; 250 g ai/ha): 10
- Plant response rating, Soybean ([11]; 500 g ai/ha): 10
- Plant response rating (0 to 100), Chickweed ([12]; 62 g ai/ha): 98
- Plant response rating (0 to 100), Chickweed ([12]; 125 g ai/ha): 100
- Plant response rating, Chickweed ([12]; 250 g ai/ha): 100
- Plant response rating, Chickweed ([12]; 500 g ai/ha): 100
- Plant response rating (0 to 100), Kochia ([13]; 62 g ai/ha): 50
- Plant response rating (0 to 100), Kochia ([13]; 125 g ai/ha): 55
- Plant response rating, Kochia ([13]; 250 g ai/ha): 90
- Plant response rating, Kochia ([13]; 500 g ai/ha): 95
- Plant response rating (0 to 100), Oat, Wild ([14]; 62 g ai/ha): 0
- Plant response rating (0 to 100), Oat, Wild ([14]; 125 g ai/ha): 0
- Plant response rating, Oat, Wild ([14]; 250 g ai/ha): 0
- Plant response rating, Oat, Wild ([14]; 500 g ai/ha): 0
